Measurements reported in paper PMC5108082, “Pharmacokinetics, toxicity, and cytochrome P450 modulatory activity of plumbagin” (BMC Pharmacology & Toxicology, 2016).

Tested on: CYP1A2 mRNA
Test: CYP1A2 mRNA expression in livers of treated mice (RT-PCR)
Format: in vivo, mouse
Settings: mice, 25, 12.5, 6.25 mg/kg daily oral for 28 days vs control
Experimental: Mice were divided into four groups (3 male mice each). Mice in the treated groups were fed with plumbagin at a daily oral dose of 25, 12.5, or 6.25 mg/kg body weight (1 mL) for 28 days. The control group received a daily oral dose (1 mL) of 20 % Tween-80 for 28 days. At the end of the experiment period, all animals were sacrificed under ether anesthesia and livers were removed for investigation of the modulatory effect of plumbagin on hepatic CYP1A2 and CYP3A11.
The liver sample isolated from each mouse was rinsed with ice-cold, 0.9 % NaCl and total RNA was prepared using Trizol^TM reagent according to the manufacturer’s protocol (Invitrogen, Karlsruhe, Germany). Briefly, the sample was homogenized in TRIZOL reagent (1 mL) per 50–100 mg of tissue. The homogenized sample was incubated at 25 °C for 5 min and chloroform (0.2 mL/1 mL of TRIZOL reagent) was added. The sample was thoroughly mixed and incubated at 25 °C for 3 min. Following centrifugation (12,000 × g for 15 min, 2–8 °C), the sample was separated into a lower red phenol-chloroform phase, an interphase, and a colorless upper aqueous phase. […] The RNA pellets were dried and dissolved in 20 μL DEPC-treated water and the concentrations were determined using NanoDrop Spectrophotometry (NanoDrop Technologies, Wilmington, DE, USA). […]

## CC1=CC(=O)c2c(O)cccc2C1=O [plumbagin, 5-hydroxy-2-methyl-1,4-naphthoquinone]
  modulation of CYP1A2 mRNA expression: not found to induce or inhibit
Listed as Plumbagin
  modulation of CYP1A2 mRNA expression: did not significantly modulate
